These results are taken from patent US20150329918A1, “JAGGED1 AS A MARKER AND THERAPEUTIC TARGET FOR BREAST CANCER BONE METASTASIS” (The Trustees of Princeton University, priority 2011, published 2015).

The subject of one data set is SCP2 bone metastasis. Kind of data set: Bone metastasis xenograft, SCP2 cells injected intracardially, MRK-003 treatment. It is filed as in vivo, mouse. As to the method:
For bone metastsis studies, 10^5 tumor cells were injected into the left cardiac ventricle of anesthetized female athymic Ncr-nu/nu or BALB/c mice. Development of metastases was monitored by BLI. Bioluminescence images were acquired with a Xenogen IVIS 200 Imaging System. Analysis was performed with Living Image software by measuring photon flux in the hindlimbs of mice. Data were normalized to the signal on day 7. Bone metastasis-free survival curves represent the time point at which each mouse developed bone metastasis by threshold BLI signals in the hindlimbs. For the orthotopic xenograft model, mammary fat pad injections and primary tumor size measurements were performed following the procedure described previously (Minn et al., 2005, which is incorporated herein by reference as if fully set forth).
Osteolysis was assessed by X-ray radiography. Anesthetized mice were placed on single wrapped films (X-OMAT AR, Eastman Kodak) and exposed to X-ray radiography at 35 kV for 15 s using a MX-20 Faxitron instrument. Films were developed using a Konica SRX-101A processor. Osteolytic lesions were identified on radiographs as demarcated radiolucent lesions in the bone and quantified using the ImageJ software (National Institutes of Health).
Hindlimb bones were excised from mice at the end point of each experiment, immediately after the last BLI time point. Following this, the tumor-bearing hind limb bones were fixed in 10% neutral-buffered formalin, decalcified in 10% EDTA for 2 weeks, and embedded in paraffin for hematoxylin and eosin (H&E), tartrate-resistant acid phosphatase (TRAP) (Kos et al., 2003, which is incorporated herein by reference as if fully set forth), or immunohistochemical staining. Histomorphometric analysis was performed on H&E stained bone metastasis samples using the Zeiss Axiovert 200 microscope and the AxioVision software version 4.6.3 SP1. For quantitative analysis of lesion area, a 5× objective was used to focus on the tumor region of interest and images were acquired using the AxioCamICc3 camera set to an exposure of 100 ms. Lesions that were larger than the field of view were quantified by acquiring multiple images to encompass the entire lesion. The “spline” function of the AxioVision software was used to outline the region of interest and subsequently quantify the lesion area. Osteoclast number was assessed as multinucleated TRAP^+ cells along the tumor-bone interface and reported as number/mm of interface (Yin et al., 2003, which is incorporated herein by reference as if fully set forth). Immunohistochemical analysis was performed with heat-induced antigen retrieval. Primary antibodies used were anti-JAGGED1 (Santa Cruz, sc-6011) and anti-Ki67 (Dako, Denmark). Biotinylated secondary antibody was used with Vectastain ABC Kit (Vector Laboratories) and DAB detection kit (Zymed) to reveal the positively stained cells with nuclei counterstained with hematoxylin.
MRK-003 is a potent and specific gamma-secretase inhibitor whose biochemical, cellular and pharmacological properties have been extensively studied and reported. MRK-003 is a cyclic sulfamide with sub-nanomolar potency inhibiting gamma-secretase-mediated cleavage of Notch to its active form (NICD) (Lewis et al., 2007, which is incorporated herein by reference as if fully set forth). […] For xenograft experiments, mice were administered the vehicle (0.5% methylcellulose) or MRK-003 by oral gavage twice a week at a 100 mg/kg dosage. The dosing schedule was 2-days on, 5-days off. […]

For a further data set, the system named is Notch. The settings on record: cited from earlier work.
The conditions of data set [1]: LoRusso et al, AACR 2009; cited from earlier work.
The subject of the next data set is Notch reporter. Kind of data set: Notch reporter assay in MC3T3-E1 osteoblasts cocultured with JAG1 OE tumor cells. It is filed as cell-based, mouse. The settings on record: 6-fold increase induced by JAG1 OE tumor cell coculture; FIG. 7A. As to the method: For transfection experiments, MC3T3-E1 osteoblasts were seeded at 2×10^5 cells/well in 12-well plates and grown to 95% confluence. For reporter assays, the firefly luciferase Notchreporter (Zeng et al., 2005, which is incorporated herein by reference as if fully set forth) and cytomegalovirus (CMV)-Renilla luciferase control (Promega) plasmids were transfected using Lipofectamine 2000 at concentrations designated by the manufacturer's instructions. After 4 hours, the transfection media was changed to regular media containing 1×10^5 vector control or JAG1 OE tumor cells per well and plated in triplicate in the presence of DMSO or MRK-003. Following 2 days, the coculture was lysed and subjected to a luciferase assay in which firefly counts (Notch reporter activity) was divided by renilla counts to normalize for transfection efficiency. For siRNA transfection experiments, a scrambled control siRNA or two distinct targeting siRNAs against Rbpj #1-[…] [SEQ ID NO: 6] and #2-[…] [SEQ ID NO: 7] or Hey1 #1-[…] [SEQ ID NO: 8] and #2-[…] [SEQ ID NO: 9] […] Following 6 days, the coculture was lysed and subjected to a luciferase assay to selectively quantify the number of tumor cells. For gene expression analysis, RNA from cocultures was collected in RLT lysis buffer, extracted with RNeasy mini kit (Qiagen), and subjected to quantitative RT-PCR.
In general terms: Reporter assays use an easily measured gene product as a stand-in for the process of interest.

On to `O=S1(=O)N[C@@]2(CN1CC(F)(F)F)[C@@H]1CC[C@H]2Cc2ccc(/C=C/CN3CCC(C(F)(F)F)CC3)cc2C1` [MRK-003], for which the “reduction in bone metastasis burden by BLI” value in the data set on SCP2 bone metastasis (100 mg/kg oral gavage twice a week, FIG. 16A) was found to be 5 fold. Besides, the “delay in the onset of bone metastasis” value in the data set on SCP2 bone metastasis (FIG. 16B) was about 10 days. Further, the “number of bone lesions” value with SCP2 bone metastasis (FIG. 16C) is on record as “reduced”. Moreover, the “reduction in X-ray lesion area” value with SCP2 bone metastasis (FIG. 16D) came out at 2 fold. Further, in the data set with SCP2 bone metastasis (bone-tumor interface, FIG. 16E), the “decrease in the number of TRAP+ osteoclasts” value is on record as 3 fold. Moreover, the “efficacy with intermittent exposure in mice” value with Notch (Tammam et al., 2009) is listed as “robust efficacy”. Moreover, in the data set with Notch (recovery during dosing holiday), the “intestinal effect resulting from Notch inhibition” value is given as “transient intestinal metaplasia (goblet cell induction)”. Also, in data set [1], the “clinical responses with once-weekly dosing” value is listed as “strong clinical responses” and the “tolerability of once-weekly dosing in the clinic” value is listed as “well-tolerated”. In addition, the “Notch activity (Notch reporter)” value in the data set on Notch reporter was “abolished”.
